Test results: patent US12637487B2 (priority 2017, dated 2026)
“Also recorded” adds a separate entry of the source.

What was measured:
[1] = test system: HCV virus; assay: In vitro efficacy of MD36792 and combination with AA011 and VK021 on HCV virus; type: cell-based
[2] = test system: Ebola virus; type: cell-based
[3] = test system: Hepatitis C virus (HCV type 2a, JFH1-Luc virus strain); assay: MD36792 experiment against hepatitis C virus (Rluc reporter, Huh7.5.1 cells); type: cell-based
[4] = test system: Human Immunodeficiency Virus (HIV); assay: MD36792 experiments against human immunodeficiency virus (MT-4 cell protection); type: cell-based; settings: MT-4 cells, LAI virus
Description: • 1. […] Cell: MT4 cells. • 3. Virus: Human Immunodeficiency Virus (HIV). • 4. Experimental reagents: RPMI-1640 medium, CellTiter-Glo detection kit (Promega) and other experimental reagents.
Experimental principle: MT-4 cell protection experiments were used to detect compounds against viruses.
Experimental steps: A 3-fold diluted drug was added to a 96-well plate, which incubates the LAI virus and MT-4 cells and inoculates it into the well plate. After culture, when the virus infects the control wells, a significant CPE appears. Reagent CellTiter-Glo was added and mixed, then the chemiluminescence signal is to be detected.
The experiment set the cell control (uninfected cell control), virus control, and positive drug control (Zidovudine, AZT).

[5] = test system: cells; assay: Toxicity to the cells in the HCV combination study; type: cell-based; settings: toxic CC50 to the cells; start concentration 200 μg/ml MD36792, 4 X dilution
[6] = test system: tumor patients; assay: Effect of dicycloplatin on tumor-induced tissue edema and inflammation; type: in vivo, human
[7] = test system: Ebola virus infected people; type: in vivo, human; settings: 20 Ebola-infected patients (Africa), dicycloplatin alone i.v., 1-3 weeks
[8] = test system: ICR mice; assay: Acetic acid-induced twisting (writhing) model, analgesic effect; type: in vivo; settings: for Twisting Number Mean: 1 hour before 0.8% acetic acid i.p., 10 mice; for analgesic effect: acetic acid-induced model, mice
Description: Experimental method: Animals were adaptively fed for 5 days, and the body weight of the mice was weighed. […] The mice assigned to MD36792 group and the positive control group were given the corresponding drugs. After 1 hour of administration, the mice in each group were intraperitoneally injected with 0.8% acetic acid (0.2 mL/head). The twisting number of the mice were observed and recorded within 15 minutes.

[9] = test system: HBV patients; assay: Dicycloplatin alone in hepatitis B patients; type: in vivo, human; settings: 12 hepatitis B patients, 1-3 months
[10] = test system: cancer patients; assay: Effect of dicycloplatin on pain in cancer patients (Table 5); type: in vivo, human; settings: for pain, 5th day / pain, 17th day / pain, 31st day, then stop taking: 150 mg i.v. drip once every two days; for pain, 60th-90th (without using DCP ): after stopping
Description: Among cancer patients, it is suitable especially to patients with advanced liver cancer, kidney cancer, bone metastases, brain metastases and bone cancer. […] Some patients stopped using dicycloplatin after a certain course of dicycloplatin treatment, and no pain occurred again.
Dose of the above cancer patients is taken once every two days, 150 mg/5% glucose aqueous solution is dripped intravenously.

[11] = test system: HIV-infected individuals; parameters: species or system human; settings: in vivo
[12] = test system: Hepatitis B virus (HBV); assay: MD36792 experiment against hepatitis B virus (HBeAg/HBsAg ELISA, HepAD38 cells); type: cell-based; settings: 72 hours, from 333 μM
[13] = test system: patients with hepatitis C; assay: Dicycloplatin alone in hepatitis C patients; type: in vivo, human; settings: 9 patients with hepatitis C, 1-3 months
[14] = test system: virus; assay: Antiviral effect of AA011 and VK021 alone; type: cell-based
[15] = at 1000 μM
[16] = Lung cancer to bone metastasis 5 cases
[17] = Lung cancer to brain metastasis 2 cases
[18] = at 1000 μM and 250 μM concentration

Dicycloplatin [MD36792]
SI (selection index of the antiviral effect) [1]: 4.44 | EC50 ([1]; start concentration 200 μg/ml MD36792, 4 X dilution): 15.62 µg/mL | inhibitory effect on Ebola virus infection [2]: no inhibitory effect | inhibitory effect on HCV [3]: no inhibitory effect | EC50 ([3]; 72 hours, read-out: EC50 (50% inhibition) of HCV): 121 µM | inhibitory effect on HIV infection [4]: no inhibitory effect | CC50 [5]: 69.4 µg/mL | hepatic tissue edema ([6]; liver cancer patients, infusion or oral administration for a period of time): significantly disappeared or reduced | tissue edema in the brain caused by cancer metastasis ([6]; lung cancer patients with brain metastases, oral or injection, one to two weeks): basically eliminated | control or remission [7]: without any control or remission | virus index [7]: None of the patients showed a downward trend | dose relation of analgesic effects ([8]; 10, 20, 40 mg/kg): dose-independent | Twisting Number Mean ([8]; High dose 40 mg/kg, within 15 minutes): 8.7 | Twisting Number Mean ([8]; Low dose 10 mg/kg, within 15 minutes): 15.2 | Twisting Number Mean ([8]; Middle dose 20 mg/kg, within 15 minutes): 14.8 | analgesic effect [8]: significant analgesic effects | analgesic effect ([8]; listed as dicycloplatin): significant analgesic effect | number of writhing compared with the model group ([8]; high-dose group (40 mg/kg), P=0.009): statistically significantly suppressed | virus index ([9]; dicycloplatin alone 150 mg once every two days (i.v. drip or oral)): None of the patients showed a downward trend | liver function ([9]; dicycloplatin alone): did not improve | pain, 5th day ([10]; Bone cancer 3 cases): Pain gone | pain, 17th day ([10]; Bone cancer 3 cases): No pain | pain, 31st day, then stop taking ([10]; Bone cancer 3 cases): No pain | pain, 60th-90th (without using DCP ) ([10]; Bone cancer 3 cases): No pain | pain, 5th day ([10]; Kidney cancer 1 case): Pain relieved | pain, 17th day ([10]; Kidney cancer 1 case): Pain gone | pain, 31st day, then stop taking ([10]; Kidney cancer 1 case): No pain | pain, 60th-90th (without using DCP ) ([10]; Kidney cancer 1 case): No pain | pain, 5th day ([10]; Liver cancer 5 cases): Pain gone | pain, 17th day ([10]; Liver cancer 5 cases): No pain | pain, 31st day, then stop taking ([10]; Liver cancer 5 cases): No pain | pain, 60th-90th (without using DCP ) ([10]; Liver cancer 5 cases): No pain | pain, 5th day [10, 16]: Pain gone | pain, 17th day [10, 16]: No pain | pain, 31st day, then stop taking [10, 16]: No pain | pain, 60th-90th (without using DCP ) [10, 16]: No pain | pain, 5th day [10, 17]: Pain gone | pain, 17th day [10, 17]: No pain | pain, 31st day, then stop taking [10, 17]: No pain | pain, 60th-90th (without using DCP ) [10, 17]: No pain | treatment of pain caused by cancer ([10]; cancer patients, dicycloplatin injection or oral as the only treatment): significant effect; also recorded: significant efficacy | liver function [11]: did not improve | viral index ([11]; po): none showed a downward trend | inhibitory effect on the expression of HBeAg (e antigen) of HBV [12]: no inhibitory effect | inhibitory effect on the expression of HBsAg (surface antigen) of HBV [12]: no inhibitory effect | virus index ([13]; dicycloplatin alone 150 mg once every two days): None of the patients showed a downward trend | liver function ([13]; dicycloplatin alone): did not improve

COc1cc2c(cc1OC)[C@@H]1Cc3ccc(OC)c(OC)c3CN1CC2 [Rotundine, reference compound]
Twisting Number Mean ([8]; 100 mg/kg, counted within 15 minutes): 2.8 | number of writhing compared with the model group ([8]; 100 mg/kg, P=0.000): statistically significantly suppressed | analgesic effect [8]: significant analgesic effects

Cc1cn([C@H]2C[C@H](N=[N+]=[N-])[C@@H](CO)O2)c(=O)[nH]c1=O [zidovudine, Zidovudine, reference compound]
inhibitory effect on HIV infection [4]: significant inhibitory effect

N[C@@H](CCC(=O)N[C@@H](CS)C(=O)NCC(=O)O)C(=O)O [AA011, glutathione]
antiviral effect [14, 18]: certain antiviral effect | cytotoxicity [15]: no obvious cytotoxicity

C[C@@]1(O)[C@H](O)[C@@H](CO)O[C@H]1n1ccc(N)nc1=O [2'CMC, reference compound]
antiviral effect ([14]; positive drug, better as the dose increases): good antiviral effect

NC(=O)c1ncn([C@@H]2O[C@H](CO)[C@@H](O)[C@H]2O)n1 [Ribavirin, reference compound]
inhibitory effect on HCV [3]: significant inhibitory effect

O=C1O[C@H]([C@@H](O)CO)C(O)=C1O [VK021, vitamin C]
antiviral effect [14, 18]: certain antiviral effect
